In patent publication US6638530B1, “Benzamide formulation with histone deacetylase inhibitor activity” (Schering Aktiengesellschaft, priority 1999, dated 2003):
≈ marks a conversion by molar mass, not a printed value. Where two headings read alike, the source gives them in different places.

Assay: Solubility of compound 1 in solvent (100 mg blended with 10 ml solvent, supernatant measured by HPLC)
Type: physicochemical
Conditions: for solubility thermodynamic: thermodynamic from solid, read-out: Compound 1 concentration; for solubility thermodynamic / Compound 1 concentration: room temperature
Description: After thoroughly blending 100 mg of compound 1 with 10 ml each of 0.05 N hydrochloric acid solution, methanol, ethanol, propylene carbonate, polysorbate 80, polyethylene glycol 400, polyethylene glycol 300, glycerin, dimethylacetamide or propylene glycol at room temperature, the supernatant obtained by centrifugal separation of each mixture was separated off and used as a pharmaceutical solution. Comparative control samples were also prepared by thoroughly dissolving 100 mg of compound 1 with 10 ml each of purified water, sodium acetate buffer solution at pH 4.0 or sodium phosphate buffer solution at pH 6.8 at room temperature, and separating off the supernatant obtained by centrifugal separation. […] All of the samples of the present invention contained dissolved compound 1 at a concentration of 5 mg/ml or greater, which is a sufficient concentration for an injection. On the other hand, all of the comparative control samples contained dissolved compound 1 only at a concentration of 0.2 mg/ml or less, and therefore the concentration necessary for an injection could not be guaranteed.

- concentration of dissolved compound 1 (all of the comparative control samples): ≤ 200 µg/mL
- concentration of dissolved compound 1 (all of the samples of the present invention): ≥ 5000 µg/mL
- solubility thermodynamic (purified water, solvent: water, comparative control sample): 40 µg/mL (≈ 106 µM)
- solubility thermodynamic (simulated gastric fluid, solvent: 0.05 N hydrochloric acid solution): 14000 µg/mL (≈ 37200 µM)
- solubility thermodynamic (sodium acetate buffer solution, aqueous buffer, solvent: sodium acetate buffer, pH 4.0, comparative control sample): 200 µg/mL (≈ 531 µM)
- solubility thermodynamic (sodium phosphate buffer solution, aqueous buffer, solvent: phosphate buffer, pH 6.8, comparative control sample): 40 µg/mL (≈ 106 µM)
- Compound 1 concentration (solvent: dimethylacetamide): >100 mg/mL
- Compound 1 concentration (solvent: ethanol): 5.4 mg/mL
- Compound 1 concentration (solvent: glycerin): 10.0 mg/mL
- Compound 1 concentration (solvent: methanol): 9.9 mg/mL
- Compound 1 concentration (solvent: polyethylene glycol 300): 69.1 mg/mL
- Compound 1 concentration (solvent: polyethylene glycol 400): 77.7 mg/mL
- Compound 1 concentration (solvent: polysorbate 80): 29.9 mg/mL
- Compound 1 concentration (solvent: propylene carbonate): 17.5 mg/mL
- Compound 1 concentration (solvent: propyleneglycol): 54.6 mg/mL
SMILES: Nc1ccccc1NC(=O)c1ccc(CNC(=O)OCc2cccnc2)cc1 [Compound 1]
